From patent US20250179059A1 (The Regents of the University of California, priority 2021, published 2025)

Columns and labels:
[1] = target: T1, human BRD4 bromodomain II (Homo sapiens, UniProt O60885); test: Bromodomain binding assay (AlphaScreen), BRD4 BDII; settings: AlphaScreen assay, Table C2; read-out: BRD4 BDII IC50
T1 construct: human BRD4 bromodomain II [based on Genbank NM_058243, residues 349-460]; host or cells: E. coli
Procedure, shortened: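 E. coli-expressed N-terminal His6-tagged human BRD4 BDII (residues 349-460) or BDI (residues 44-170) was preincubated 30 min at room temperature with compound (10-point, 3-fold) in pH 7.5 HEPES buffer, 1% DMSO. Displacement of biotinylated tetra-acetylated H4 1-21 peptide was read by AlphaScreen, and IC50 came from curve fitting.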

[2] = tested on: human SKM-1 acute myeloid leukemia cells; test: SKM-1 antiproliferation cell-based assay (ATPlite); settings: Homo sapiens, SKM-1, 96 h, SKM-1 antiproliferation assay, 4 days, Table C2
Procedure, shortened: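 Log-phase cells in RPMI 1640/15% FBS were seeded at 34722 cells/mL and exposed for 4 days to nine-concentration DMSO serial dilutions in triplicate. Viability was read as ATP luminescence (ATPlite 1step), and IC50 values came from variable-slope non-linear regression.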

Work on `CN1CCN(c2ccc(-c3cc(F)cc(-c4cnc(-c5ccn[nH]5)c(N5CCNCC5)c4)c3O)cc2Cl)C1=O` [Example 391, 1-(3-chloro-5′-fluoro-2′-hydroxy-3′-(5-(piperazin-1-yl)-6-(1H-pyrazol-5-yl)pyridin-3-yl)-[1,1′-biphenyl]-4-yl)-3-methylimidazolidin-2-one] yielded an IC50 [1] of 1 to 10 nM and a GI50 [2] of 30 to 300 nM.
`CN1CCN(c2ccc(-c3cc(F)cc(-c4cnc(OCCO)c(N5CCNCC5)c4)c3O)cc2Cl)C1=O` [Example 392, 1-(3-chloro-5′-fluoro-2′-hydroxy-3′-(6-(2-hydroxyethoxy)-5-(piperazin-1-yl)pyridin-3-yl)-[1,1′-biphenyl]-4-yl)-3-methylimidazolidin-2-one] gave an IC50 [1] of 1 to 10 nM and a GI50 [2] of 30 to 300 nM.
`COCCOc1ncc(-c2cc(F)cc(-c3ccc(N4CCN(C)C4=O)c(Cl)c3)c2O)cc1N1CCNCC1` [Example 393, 1-(3-chloro-5′-fluoro-2′-hydroxy-3′-(6-(2-methoxyethoxy)-5-(piperazin-1-yl)pyridin-3-yl)-[1,1′-biphenyl]-4-yl)-3-methylimidazolidin-2-one] was tested, and the IC50 [1] was 1 to 10 nM and the GI50 [2] was 30 to 300 nM.
With `CN1CCN(c2ccc(-c3cc(F)cc(-c4cc(N5CC[C@H](N)C5)c(=O)n(C)c4)c3O)cc2Cl)C1=O` [Example 394, (S)-3-(3-aminopyrrolidin-1-yl)-5-(3′-chloro-5-fluoro-2-hydroxy-4′-(3-methyl-2-oxoimidazolidin-1-yl)-[1,1′-biphenyl]-3-yl)-1-methylpyridin-2(1H)-one] the IC50 [1] was 1 to 10 nM and the GI50 [2] was 30 to 300 nM.
Work on `CC(=O)NCCNc1ncc(-c2cc(F)cc(-c3ccc(N4CCN(C)C4=O)c(Cl)c3)c2O)cc1N1CCNCC1` [Example 395, N-(2-((5-(3′-chloro-5-fluoro-2-hydroxy-4′-(3-methyl-2-oxoimidazolidin-1-yl)-[1,1′-biphenyl]-3-yl)-3-(piperazin-1-yl)pyridin-2-yl)amino)ethyl)acetamide] yielded an IC50 [1] of 1 to 10 nM and a GI50 [2] of 30 to 300 nM.
Work on `CC(=O)NCCOc1ncc(-c2cc(F)cc(-c3ccc(N4CCN(C)C4=O)c(Cl)c3)c2O)cc1N1CCNCC1` [Example 396, N-(2-((5-(3′-chloro-5-fluoro-2-hydroxy-4′-(3-methyl-2-oxoimidazolidin-1-yl)-[1,1′-biphenyl]-3-yl)-3-(piperazin-1-yl)pyridin-2-yl)oxy)ethyl)acetamide] yielded an IC50 [1] of 1 to 10 nM and a GI50 [2] of 30 to 300 nM.
`CN1CCN(c2ccc(-c3cc(F)cc(-c4cnc(N5CCCC5)c(N5CCNCC5)c4)c3O)cc2Cl)C1=O` [Example 397, 1-(3-chloro-5′-fluoro-2′-hydroxy-3′-(5-(piperazin-1-yl)-6-(pyrrolidin-1-yl)pyridin-3-yl)-[1,1′-biphenyl]-4-yl)-3-methylimidazolidin-2-one] showed an IC50 [1] of 1 to 10 nM and a GI50 [2] of 30 to 300 nM.
`CN1CCN(c2ccc(-c3cc(F)cc(-c4cnc(C(=O)O)c(N5CCNCC5)c4)c3O)cc2Cl)C1=O` [Example 398, 5−(3′-chloro-5-fluoro-2-hydroxy-4′-(3-methyl-2-oxoimidazolidin-1-yl)-[1,1′-biphenyl]-3-yl)-3-(piperazin-1-yl)picolinic acid] showed an IC50 [1] of 10 to 100 nM and a GI50 [2] of no less than 3000 nM.
`COCc1ncc(-c2cc(F)cc(-c3ccc(N4CCN(C)C4=O)c(Cl)c3)c2O)cc1N1CCNCC1` [Example 399, 1-(3-chloro-5′-fluoro-2′-hydroxy-3′-(6-(methoxymethyl)-5-(piperazin-1-yl)pyridin-3-yl)-[1,1′-biphenyl]-4-yl)-3-methylimidazolidin-2-one] was tested, and the IC50 [1] was 1 to 10 nM and the GI50 [2] was 30 to 300 nM.
With `CN1CCN(c2c(F)cc(-c3cc(F)cc(-c4ccnc(N5CCNCC5)c4)c3O)cc2Cl)C1=O` [Example 400, 1-(3-chloro-5,5′-difluoro-2′-hydroxy-3′-(2-(piperazin-1-yl)pyridin-4-yl)-[1,1′-biphenyl]-4-yl)-3-methylimidazolidin-2-one] the IC50 [1] was 10 to 100 nM and the GI50 [2] was 300 to 3000 nM.
Compound `CN1CCN(c2ccc(-c3cc(F)cc(-c4cc(C5=CCNCC5)cn(C)c4=O)c3O)cc2Cl)C1=O` [Example 401, 5-(3′-chloro-5-fluoro-2-hydroxy-4′-(3-methyl-2-oxoimidazolidin-1-yl)-[1,1′-biphenyl]-3-yl)-1-methyl-1′,2′,3′,6′-tetrahydro-[3,4′-bipyridin]-6(1H)-one] has an IC50 [1] greater than 100 nM and a GI50 [2] of 300 to 3000 nM.
`O=C1CCCN1c1c(Cl)cc(-c2cc(F)cc(-c3ccnc(N4CCNCC4)c3)c2O)cc1Cl` [Example 402, 1-(3,5-dichloro-5′-fluoro-2′-hydroxy-3′-(2-(piperazin-1-yl)pyridin-4-yl)-[1,1′-biphenyl]-4-yl)pyrrolidin-2-one] was tested, and the IC50 [1] was greater than 100 nM and the GI50 [2] was 300 to 3000 nM.
With `CC#Cc1ncc(-c2cc(F)cc(-c3ccc(N4CCN(C)C4=O)c(Cl)c3)c2O)cc1N1CCNCC1` [Example 403, 1-(3-chloro-5′-fluoro-2′-hydroxy-3′-(5-(piperazin-1-yl)-6-(prop-1-yn-1-yl)pyridin-3-yl)-[1,1′-biphenyl]-4-yl)-3-methylimidazolidin-2-one] the IC50 [1] was 1 to 10 nM and the GI50 [2] was 0.3 to 30 nM.
`CN1CCN(c2c(Cl)cc(-c3cc(F)cc(-c4ccnc(N5CCNCC5)c4)c3O)cc2Cl)C1=O` [Example 404, 1-(3,5-dichloro-5′-fluoro-2′-hydroxy-3′-(2-(piperazin-1-yl)pyridin-4-yl)-[1,1′-biphenyl]-4-yl)-3-methylimidazolidin-2-one] gave an IC50 [1] greater than 100 nM and a GI50 [2] of 300 to 3000 nM.
`CN1CCN(c2ccc(-c3cc(F)cc(-c4cnc(NCCO)c(N5CCNCC5)c4)c3O)cc2Cl)C1=O` [Example 405, 1-(3-chloro-5′-fluoro-2′-hydroxy-3′-(6-((2-hydroxyethyl)amino)-5-(piperazin-1-yl)pyridin-3-yl)-[1,1′-biphenyl]-4-yl)-3-methylimidazolidin-2-one] showed an IC50 [1] of 1 to 10 nM and a GI50 [2] of 30 to 300 nM.
`CN1CCN(c2ccc(-c3cc(F)cc(-c4ccnc(N5CCNCC5)c4)c3N)cc2Cl)C1=O` [Example 406, 1-(2′-amino-3-chloro-5′-fluoro-3′-(2-(piperazin-1-yl)pyridin-4-yl)-[1,1′-biphenyl]-4-yl)-3-methylimidazolidin-2-one] showed an IC50 [1] of 10 to 100 nM and a GI50 [2] of 30 to 300 nM.
For `CN1CCN(c2ccc(-c3cc(F)cc(-c4cnc(Cl)c(N5CCNCC5)c4)c3O)cc2Cl)C1=O` [Example 407, 1-(3-chloro-3′-(6-chloro-5-(piperazin-1-yl)pyridin-3-yl)-5′-fluoro-2′-hydroxy-[1,1′-biphenyl]-4-yl)-3-methylimidazolidin-2-one], the IC50 [1] was 1 to 10 nM and the GI50 [2] was 0.3 to 30 nM.
In the case of `Cn1ccn(-c2c(Cl)cc(-c3cc(F)cc(-c4ccnc(N5CCNCC5)c4)c3O)cc2Cl)c1=O` [Example 408, 1-(3,5-dichloro-5′-fluoro-2′-hydroxy-3′-(2-(piperazin-1-yl)pyridin-4-yl)-[1,1′-biphenyl]-4-yl)-3-methyl-1H-imidazol-2(3H)-one], the IC50 [1] is reported as 10 to 100 nM and the GI50 [2] is reported as 300 to 3000 nM.
`[2H]C([2H])([2H])n1ccn(-c2ccc(-c3cc(F)cc(-c4ccnc(N5CCNCC5)c4)c3O)cc2Cl)c1=O` [Example 409, 1-(3-chloro-5′-fluoro-2′-hydroxy-3′-(2-(piperazin-1-yl)pyridin-4-yl)-[1,1′-biphenyl]-4-yl)-3-(trideuteromethyl)-1H-imidazol-2(3H)-one] was tested, and the IC50 [1] was 1 to 10 nM and the GI50 [2] was 0.3 to 30 nM.
Work on `Cn1ccn(-c2ccc(-c3cc(F)cc(-c4ccnc(N5CCC[C@H](N)C5)c4)c3O)cc2Cl)c1=O` [Example 411, (S)-1-(3′-(2-(3-aminopiperidin-1-yl)pyridin-4-yl)-3-chloro-5′-fluoro-2′-hydroxy-[1,1′-biphenyl]-4-yl)-3-methyl-1H-imidazol-2(3H)-one] yielded an IC50 [1] of 0.01 to 1 nM and a GI50 [2] of 0.3 to 30 nM.
In the case of `[2H]C([2H])([2H])N1CCN(c2ccc(-c3cc(F)cc(-c4ccnc(N5CCNCC5)c4)c3O)cc2Cl)C1=O` [Example 412, 1-(3-chloro-5′-fluoro-2′-hydroxy-3′-(2-(piperazin-1-yl)pyridin-4-yl)-[1,1′-biphenyl]-4-yl)-^3-deuteromethylimidazolidin-2-one], the IC50 [1] is reported as 0.01 to 1 nM and the GI50 [2] is reported as 30 to 300 nM.
For `Cn1ccn(-c2ccc(-c3cc(F)cc(-c4ccnc(N5CCC(N)CC5)c4)c3O)cc2Cl)c1=O` [Example 414, 1-(3′-(2-(4-aminopiperidin-1-yl)pyridin-4-yl)-3-chloro-5′-fluoro-2′-hydroxy-[1,1′-biphenyl]-4-yl)-3-methyl-1H-imidazol-2(3H)-one], the IC50 [1] was 0.01 to 1 nM and the GI50 [2] was 30 to 300 nM.
For `CN1CCN(c2ccc(-c3cc(F)cc(-c4cnc(N5CCOCC5)c(N5CCNCC5)c4)c3O)cc2Cl)C1=O` [Example 415, 1-(3-chloro-5′-fluoro-2′-hydroxy-3′-(6-morpholino-5-(piperazin-1-yl)pyridin-3-yl)-[1,1′-biphenyl]-4-yl)-3-methylimidazolidin-2-one], the IC50 [1] was 1 to 10 nM and the GI50 [2] was 30 to 300 nM.
Compound `CN1CCN(c2ccc(-c3cc(F)cc(-c4ncc(N5CCOCC5)cc4N4CCNCC4)c3O)cc2Cl)C1=O` [Example 416, 1-(3-chloro-5′-fluoro-2′-hydroxy-3′-(5-morpholino-3-(piperazin-1-yl)pyridin-2-yl)-[1,1′-biphenyl]-4-yl)-3-methylimidazolidin-2-on] has an IC50 [1] of 10 to 100 nM and a GI50 [2] of no less than 3000 nM.
Compound `O=C1CCN1c1ccc(-c2cc(F)cc(-c3ccnc(N4CCNCC4)c3)c2O)cc1Cl` [Example 417, 1-(3-chloro-5′-fluoro-2′-hydroxy-3′-(2-(piperazin-1-yl)pyridin-4-yl)-[1,1′-biphenyl]-4-yl)azetidin-2-one] has an IC50 [1] of 1 to 10 nM and a GI50 [2] of 300 to 3000 nM.
Work on `CC(C)Oc1cc(-c2cc(F)cc(-c3ccnc(N4CCNCC4)c3)c2O)cc(Cl)c1N1CCN(C)C1=O` [Example 418, 1-(3-chloro-5′-fluoro-2′-hydroxy-5-isopropoxy-3′-(2-(piperazin-1-yl)pyridin-4-yl)-[1,1′-biphenyl]-4-yl)-3-methylimidazolidin-2-one] yielded an IC50 [1] of 10 to 100 nM and a GI50 [2] of 300 to 3000 nM.
